Experiments:
[1] = test system: PR^S17; conditions: PR^S17, flap twisting by G48V implicated; cited from earlier work
[2] = test system: PR with 22 mutations in addition to inactivating D25N mutation; conditions: PR with 22 mutations in addition to D25N; cited from earlier work
[3] = molecular target: PR with M46L; conditions: cited from earlier work
[4] = molecular target: PR with G48V; conditions: cited from earlier work
[5] = molecular target: PR with I54V; conditions: cited from earlier work
[6] = test system: PR bearing the single V82A mutation; conditions: kinetic studies; cited from earlier work
[7] = test system: PR^S17; conditions: PR^S17, predicted from genotype–phenotype data; cited from earlier work
[8] = test system: HIV-1 protease with G48V; conditions: flap mutation G48V; cited from earlier work
[9] = molecular target: PR^S17 (HIV-1 protease variant with 17 mutations); test: Kinetic inhibition of PR^S17; format: biochemical; conditions: PR^S17 compared to PR
[10] = molecular target: PR (wild-type HIV-1 protease); conditions: read-out: Inhibition constant (Ki), determined previously; cited from earlier work
[11] = molecular target: PR^V82A; conditions: read-out: Inhibition constant (Ki), determined previously; cited from earlier work
[12] = molecular target: HIV-1 protease variant PR^S17 (HIV-1); test: enzyme inhibition kinetics
[13] = test system: HIV-1 protease with G48V; conditions: thermodynamic integration and MM-PBSA; cited from earlier work

CC(C)CN(C[C@@H](O)[C@H](Cc1ccccc1)NC(=O)O[C@H]1CO[C@H]2OCC[C@H]21)S(=O)(=O)c1ccc(N)cc1 [DRV, darunavir]
cross-resistance of PR^S17 [1]: cross-resistance
resistance (fold) [2]: > 175 fold
inhibition constant (Ki) relative to wild-type PR [3]: worse inhibition constants
inhibition constant (Ki) relative to wild-type PR [4]: worse inhibition constants
inhibition constant (Ki) relative to wild-type PR [5]: worse inhibition constants
affinity of PR with V82A for inhibitor [6]: significantly worse affinity

Cc1cccc(C)c1OCC(=O)N[C@@H](Cc1ccccc1)[C@@H](O)C[C@H](Cc1ccccc1)NC(=O)[C@H](C(C)C)N1CCCNC1=O [lopinavir]
predicted resistance [7]: high-level resistance

CC(C)(C)NC(=O)[C@@H]1C[C@@H]2CCCC[C@@H]2CN1C[C@@H](O)[C@H](Cc1ccccc1)NC(=O)[C@H](CC(N)=O)NC(=O)c1ccc2ccccc2n1 [saquinavir]
predicted resistance [7]: high-level resistance
inhibition constant (Ki) relative to wild-type PR [3]: worse inhibition constants
inhibition constant (Ki) relative to wild-type PR [4]: worse inhibition constants
inhibition constant (Ki) relative to wild-type PR [5]: worse inhibition constants
resistance conferred by G48V [8]: high level of resistance

Ace-T-I-Nle-r-Nle-Q-R [p2-NC]
Ki relative to the wild-type PR (fold better inhibition) [9]: 4.2
Ki [10]: 2170 nM
Ki [11]: 530 nM

Cc1c(O)cccc1C(=O)N[C@@H](CSc1ccccc1)[C@H](O)CN1C[C@H]2CCCC[C@H]2C[C@H]1C(=O)NC(C)(C)C [nelfinavir]
predicted resistance [7]: high-level resistance
affinity of PR with V82A for inhibitor [6]: significantly worse affinity

substrate analogue p2-NC (Ace-T-I-Nle-r-Nle-Q-R) (peptide)
Ki [12]: 514 nM

CC(C)CN(C[C@@H](O)[C@H](Cc1ccccc1)NC(=O)O[C@H]1CCOC1)S(=O)(=O)c1ccc(N)cc1 [APV, amprenavir]
effect of G48V on van der Waals interactions [13]: strengthens van der Waals interactions

COC(=O)N[C@H](C(=O)N[C@@H](Cc1ccccc1)[C@@H](O)CN(Cc1ccc(-c2ccccn2)cc1)NC(=O)[C@@H](NC(=O)OC)C(C)(C)C)C(C)(C)C [atazanavir]
predicted resistance [7]: high-level resistance

CC(C)(C)NC(=O)[C@@H]1CN(Cc2cccnc2)CCN1C[C@@H](O)C[C@@H](Cc1ccccc1)C(=O)N[C@H]1c2ccccc2C[C@H]1O [indinavir]
predicted resistance [7]: high-level resistance
affinity of PR with V82A for inhibitor [6]: significantly worse affinity

R-V-L-r-F-E-A-Nle [CA-p2]
Ki [10]: 75 nM
Ki [11]: 24 nM

substrate analogue CA-p2 (R-V-L-r-F-E-A-Nle) (peptide)
Ki [12]: 22 nM

CC(C)c1nc(CN(C)C(=O)N[C@H](C(=O)N[C@@H](Cc2ccccc2)C[C@H](O)[C@H](Cc2ccccc2)NC(=O)OCc2cncs2)C(C)C)cs1 [ritonavir]
predicted resistance [7]: high-level resistance
affinity of PR with V82A for inhibitor [6]: significantly worse affinity
